Values joined by “and” are separate entries in the source; they are usually repeats but may differ in a detail not shown here. Equal entries are not always repeated. Where two headings read alike, the source gives them in different places.
How the values were obtained:
[1] = tested on: patients with paroxysmal atrial fibrillation (PAF); settings: cited from earlier work
[2] = Lower-limit ratio for soluble benzyl alcohol and budiodarone compositions in water (Example 6); format: physicochemical; settings: 25, 50 and 100 mg/ml, introduced ratios 0.8 to 4.9, 24 hours in the dark, room temperature
Procedure: Three series of 20-ml screw-cap glass vials were prepared as described in Tables 5 to 7. Budiodarone tartrate was added to the empty vials, followed by water, and then benzyl alcohol was added. The vials were capped and the mixtures were vortexed for three times 10 seconds. The vials were then left in the dark for 24 hours and were then analyzed as described above using HPLC Conditions 2 and 3.
In FIG. 4, the approximately 5/1 lower-limit molar ratio is constant over a wide range of budiodarone concentrations, at least between budiodarone concentrations of 25 mg/ml and 100 mg/ml. The resulting ratios in solution, following 24-hour in the dark, were calculated from HPLC analysis data and were plotted versus the actual ratios introduced into the vials. Each point represents the mean findings of the three concentrations (25 mg/ml, 50 mg/ml, and 100 mg/ml)+/−standard deviation. […] This association takes place even when the original ratio introduced into the vial is as low as 0.8/1. Presumably the 5/1 ratio is an optimum molar ratio allowing for the optimum balance of repulsive ionic forces and attractive van der Waals forces between water molecules and the budiodarone/benzyl alcohol complex. […]

[3] = cited from earlier work
[4] = Solubility of budiodarone tartrate and benzyl alcohol in solvents of different ionic strengths (Example 4); format: physicochemical; settings: 5/1 benzyl alcohol, nominal 25 mg/ml, 1 hour
Procedure: To find out, five vials, each one containing budiodarone tartrate (200 mg, 0.234 mmoles) and benzyl alcohol (122 μl, 1.173 mmoles) were prepared. The molar ratio was therefore 5/1. To each of these vials was added 4 ml of water and the vials were vortexed, resulting in clear solutions containing 50 mg/ml of budiodarone tartrate and benzyl alcohol (molar ratio of 5/1). Then, 4 ml of one of the following solvents was added: 30 mM acetate buffer pH 5.2, 30 mM phosphate buffer saline pH 7.4, 30 mM Tris.HCl buffer pH 7.5, 1.8% sodium chloride (saline solution), and 10% dextrose solution (D10W) resulting in 15 mM concentration of buffer, 0.9% concentration of sodium chloride, and 5% concentration of dextrose (D5W), respectively.
Upon addition of an ionic solvent, all the samples except the D5W sample became turbid. The vials were then vortexed at high speed (3×10 sec) and left to stand for 1 hour. Then they were vortexed again (3×10 sec) and a 1-ml aliquot from each vial was centrifuged at 13,000 rpm for 10 min. A small aliquot of the clear supernatant was diluted 25-fold with methanol and analyzed by HPLC (Conditions 3). The remaining concentrations of budiodarone in the samples were as follows: […]

[5] = cited from earlier work; for tolerability: oral, up to 600 mg BID
[6] = Pre-formed 3/1 benzyl alcohol/budiodarone composition, solubility in water (Example 7); format: physicochemical; settings: 25 mg/ml budiodarone, 0.92% (v/v) benzyl alcohol, pre-mixed before water is added
Procedure: A clear solution containing 25 mg/ml of budiodarone and 0.92% (v/v) of benzyl alcohol (molar ratio of 3/1) was prepared. In this example, the association between budiodarone and benzyl alcohol was pre-formed before water is added.
Methanol (5 ml), budiodarone tartrate (250 mg, 0.293 mmole), and benzyl alcohol (92 μl, 0.880 mmole) were mixed. In this mixture, the molar ratio of benzyl alcohol to budiodarone was 3/1. Methanol was removed at 36° C. under partial vacuum (30 mm Hg) to form a clear oily residue. The residue was left at room temperature under high vacuum (1 mmHg) for 1 hour to remove traces of methanol. Water (10 ml), is then added, and the sample is vortexed for 3×10 sec.
In order to confirm the solubility of budiodarone and the molar ratio between benzyl alcohol and budiodarone, the sample was analyzed by HPLC. The analysis was performed immediately after preparation of the solution. An aliquot of the solution was centrifuged as described above in order to remove insoluble material.

[7] = 600 mg BID, Treatment Months 1-3, ITT
[8] = 600 mg BID, Treatment Months 1-3, mITT

Structure (SMILES): CC[C@H](C)OC(=O)Cc1oc2ccccc2c1C(=O)c1cc(I)c(OCCN(CC)CC)c(I)c1 [budiodarone, (1S)-1-methylpropyl 2-(3-{4-[2-(diethylamino)ethoxy]-3,5-diiodobenzoyl}benzofuran-2-yl)acetate]
- decrease in AFB ([1]; 200 mg BID, mITT population, not statistically significant): 10%
- median percent reduction from baseline in AT/AF burden ([1]; 400 mg BID, Treatment Months 1-3, ITT population): 54%
- median percent reduction from baseline in AT/AF burden ([1]; 400 mg BID, Treatment Months 1-3, mITT population): 54%
- median percent reduction in AT/AF burden ([1]; 600 mg BID, Treatment Month 3, ITT population, listed as ATI-2042): 80% and 83%
- median percent reduction in AT/AF burden ([1]; 600 mg BID, Treatment Month 3, mITT population): 83%
- median percent reduction from baseline in AT/AF burden ([1]; 600 mg BID, Treatment Months 1-3, ITT population): 74%
- median percent change from baseline in duration of AT/AF episodes [1, 7]: −51.3%
- median percent change from baseline in the number of AT/AF episodes [1, 7]: −52.9%
- median percent increase in the duration of NSR [1, 7]: 208.8%
- median percent reduction from baseline in AT/AF burden ([1]; 600 mg BID, Treatment Months 1-3, mITT population): 75%
- median percent change from baseline in duration of AT/AF episodes [1, 8]: −51.3%
- median percent change from baseline in the number of AT/AF episodes [1, 8]: −62.1%
- median percent increase in the duration of NSR [1, 8]: 241.8%
- decrease in number of AT/AF episodes (median percent change from baseline, FIG. 12) ([1]; 600 mg BID, all three treatment months): more than 60%
- decrease in duration of episodes (FIG. 12) ([1]; 600 mg BID, treatment month 1): more than 50%
- decrease in duration of episodes (FIG. 12) ([1]; 600 mg BID, treatment month 2): more than 70%
- decrease in duration of episodes (FIG. 12) ([1]; 600 mg BID, treatment month 3): ~70%
- mean episode duration (FIG. 13) ([1]; 600 mg, down from nearly 24): less than 1 hour
- median AF episode duration ([1]; 600 mg, month 3): 0
- reduction of number and duration of AF episodes below baseline (FIG. 12) ([1]; 600 mg): about 70%
- patients a lot or completely satisfied with the test medication (Patient GCI Scale) ([1]; ITT population, dose group not stated): 60.0%
- patients reporting a lot of improvement or complete relief (Patient GCI Scale) ([1]; dose group not stated): 46.7%
- AFB after washout ([1]; each of the three dose groups, one-month washout period): returned to essentially the baseline values
- lower-limit molar ratio of benzyl alcohol to budiodarone in solution [2]: approximately 5/1
- PR interval, reduction from baseline ([3]; 200 mg bid): 16.6+23.9%
- PR interval, reduction from baseline ([3]; 400 mg bid): 11.4+22.6%
- PR interval, reduction from baseline ([3]; 600 mg bid): 27.0+32.1%
- PR interval, reduction from baseline ([3]; 800 mg bid): 35.1 ± 30.9%
- proarrhythmia, clinical hypothyroidism, or hyperthyroidism ([3]; 200 to 800 mg bid): no cases
- serious AEs ([3]; 200 to 800 mg bid): no serious AEs related to study drug
- tolerability ([3]; 200 to 800 mg bid): generally well tolerated
- changes in HR, QRS, QT, or QTc ([3]; between baseline and dosing or washout): no significant changes
- thyroid-stimulating hormone ([3]; three patients, outside the normal range): dose-responsive increases
- PR interval, reduction from baseline ([3]; washout): 30.7 ± 24.3%
- remaining concentration of budiodarone ([4]; 0.9% saline solution): < 1 mg/mL
- remaining concentration of budiodarone ([4]; Acetate buffer pH5.2 (15 mM)): < 1 mg/mL
- remaining concentration of budiodarone ([4]; D5W): 26.6 mg/mL
- remaining concentration of budiodarone ([4]; Phosphate buffer saline pH 7.4 (15 mM)): < 1 mg/mL
- remaining concentration of budiodarone ([4]; Tris.HCl buffer pH7.5 (15 mM)): < 1 mg/mL
- creatinine ([5]; BUN unchanged): reversible elevation
- ALT ([5]; appeared to be dose related): mild, reversible increase
- tolerability [5]: safe and well tolerated
- tolerability ([5]; listed as ATI-2042): well tolerated
- tissue accumulation ([5]; slit lamp examination at the end of the treatment period): no evidence of budiodarone tissue accumulation
- corneal deposits ([5]; slit-lamp examinations): No patient treated with ATI-2042 developed corneal deposits
- solubility in water of pre-formed 3/1 molar ratio [6]: water soluble

Source: patent US20140309296A1, “BUDIODARONE FORMULATIONS” (Armetheon, Inc., priority 2013, published 2014)
